We go through 15 molecules from patent US4556658A, “7-Amino-1-cyclopropyl-6,8-difluoro-1,4-di hydro-4-oxo-quinoline-3-carboxylic acids and antibacterial agents containing these compounds” (Bayer Aktiengesellschaft, priority 1983, dated 1985).

Holding throughout (assay type): cell-based
One assay deals with Proteus mir. 8223. Nature of the assay: MIC, agar dilution test, Proteus mir. 8223. To be noted: Proteus mirabilis. From the text: (§1) | Denley multipoint inoculator
In general terms: In agar dilution the substance is mixed into plates at graded concentrations.

The test system of a further assay is Pseudomonas W. Nature of the assay: MIC, agar dilution test, Pseudomonas W.
Excerpt: as §1

Assay [1] deals with Streptococc. faecal. 9790. Nature of the assay: MIC, agar dilution test, Streptococc. faecal. 9790.
Excerpt: as §1

The next assay has as its system Proteus morg. 932. Nature of the assay: MIC, agar dilution test, Proteus morg. 932. The settings on record: Morganella morganii, Isosensitest medium.
Excerpt: as §1

[2] abbreviates: Proteus mir. 8223, agar dilution, Isosensitest medium, read-out: MIC.
[3] abbreviates: Pseudomonas W., agar dilution, Isosensitest medium, read-out: MIC.
Where [4] appears, read: Streptococc. faecal. 9790, agar dilution, Isosensitest medium, read-out: MIC.

In brackets after ≈: the same amount, converted by molar mass. Read-outs that look alike come from different tables or passages of the source.

Broadly, the MIC is the lowest concentration that inhibits growth of the organism.

As to `O=C(O)c1cn(C2CC2)c2c(F)c(N3CCN(CCO)CC3)c(F)cc2c1=O` [Example 6], the MIC is 4000 µg/mL (≈ 10200 µM) with Proteus mir. 8223 (setting [2]), 1000 µg/mL (≈ 2540 µM) with Pseudomonas W. (setting [3]) and 500 µg/mL (≈ 1270 µM) in assay [1] (setting [4]).

`O=C(O)c1cn(C2CC2)c2c(F)c(N3CCCC3)c(F)cc2c1=O` [Example 11]: the MIC came out at 8000 µg/mL (≈ 23900 µM) in the assay with Proteus mir. 8223 (setting [2]), 4000 µg/mL (≈ 12000 µM) in the assay with Pseudomonas W. (setting [3]), 500 µg/mL (≈ 1500 µM) in assay [1] (setting [4]) and 500 µg/mL (≈ 1500 µM) in the assay with Proteus morg. 932.

As to `CC(C)N1CCN(c2c(F)cc3c(=O)c(C(=O)O)cn(C4CC4)c3c2F)CC1.I` [Example 12, 1-cyclopropyl-6,8-difluoro-7-(4-isopropylpiperazin-1-yl)-1,4-dihydro-4-oxoquinoline-3-carboxylic acid hydriodide], the MIC was found to be 16000 µg/mL in the assay on Proteus mir. 8223 (setting [2]), 8000 µg/mL in the assay with Pseudomonas W. (setting [3]), 2000 µg/mL in assay [1] (setting [4]) and 60 µg/mL in the assay with Proteus morg. 932.

Regarding `CC(=O)CCN1CCN(c2c(F)cc3c(=O)c(C(=O)O)cn(C4CC4)c3c2F)CC1` [Example 28, 1-cyclopropyl-6,8-difluoro-1,4-dihydro-4-oxo-7-[4-(3-oxobutyl)-piperazin-1-yl]-quinoline-3-carboxylic acid], the MIC in the assay with Proteus mir. 8223 (setting [2]) amounted to 4000 µg/mL (≈ 9540 µM); in the assay on Pseudomonas W. (setting [3]), 250 µg/mL (≈ 596 µM); in assay [1] (setting [4]), 500 µg/mL (≈ 1190 µM).

Consider `CC1CN(c2c(F)cc3c(=O)c(C(=O)O)cn(C4CC4)c3c2F)CCN1` (centres unmarked) [Example 3], for which the MIC with Proteus mir. 8223 (setting [2]) came out at 4000 µg/mL (≈ 11000 µM); with Pseudomonas W. (setting [3]) it was 500 µg/mL (≈ 1380 µM); in assay [1] (setting [4]) it was 500 µg/mL (≈ 1380 µM).

Consider `O=C(O)c1cn(C2CC2)c2c(F)c(N3CCC(O)CC3)c(F)cc2c1=O` [Example 8], for which the MIC with Proteus mir. 8223 (setting [2]) was found to be 4000 µg/mL (≈ 11000 µM); in the assay with Pseudomonas W. (setting [3]), 1000 µg/mL (≈ 2740 µM); with Proteus morg. 932 it was 30 µg/mL (≈ 82.3 µM).

Regarding `CC1CN(c2c(F)cc3c(=O)c(C(=O)O)cn(C4CC4)c3c2F)CC(C)N1` (centres unmarked) [Example 5], the values for the MIC (in the assay with Proteus mir. 8223 (setting [2]); in the assay on Pseudomonas W. (setting [3]); in assay [1] (setting [4])) were 4000 µg/mL (≈ 10600 µM), 1000 µg/mL (≈ 2650 µM) and 500 µg/mL (≈ 1320 µM), respectively.

For the molecule `O=C(O)c1cn(C2CC2)c2c(F)c(N3CCN(CC4CC4)CC3)c(F)cc2c1=O` [Example 15, 1-cyclopropyl-7-(4-cyclopropylmethylpiperazin-1-yl)-6,8-difluoro-1,4-dihydro-4-oxoquinoline-3-carboxylic acid], the MIC with Proteus mir. 8223 (setting [2]) was 8000 µg/mL (≈ 19800 µM); in the assay on Pseudomonas W. (setting [3]) it was 8000 µg/mL (≈ 19800 µM); in assay [1] (setting [4]) it was 2000 µg/mL (≈ 4960 µM); in the assay on Proteus morg. 932, 60 µg/mL (≈ 149 µM).

On to `O=C(O)c1cn(C2CC2)c2c(F)c(N3CCOCC3)c(F)cc2c1=O` [Example 7, 1-cyclopropyl-6,8-difluoro-7-(morpholin-4-yl)-1,4-dihydro-4-oxoquinoline-3-carboxylic acid], for which the MIC is 8000 µg/mL (≈ 22800 µM) with Proteus mir. 8223 (setting [2]), 1000 µg/mL (≈ 2850 µM) in the assay on Pseudomonas W. (setting [3]), 500 µg/mL (≈ 1430 µM) in assay [1] (setting [4]) and 60 µg/mL (≈ 171 µM) against Proteus morg. 932.

On to `CCN1CCN(c2c(F)cc3c(=O)c(C(=O)O)cn(C4CC4)c3c2F)CC1C` (centres unmarked) [Example 14], for which the MIC in the assay on Proteus mir. 8223 (setting [2]) is 16000 µg/mL (≈ 40900 µM); in the assay on Pseudomonas W. (setting [3]) it was 4000 µg/mL (≈ 10200 µM); in assay [1] (setting [4]), 1000 µg/mL (≈ 2550 µM); in the assay with Proteus morg. 932, 30 µg/mL (≈ 76.6 µM).

`Cl.O=C(O)c1cn(C2CC2)c2c(F)c(N3CCNCC3)c(F)cc2c1=O` [Example 1, 1-cyclopropyl-6,8-difluoro-7-(piperazin-1-yl)-1,4-dihydro-4-oxoquinoline-3-carboxylic acid hydrochloride]: the MIC in the assay with Proteus mir. 8223 (MIR.8223) worked out at 2000 µg/mL; in the assay on Pseudomonas W. (Pseudomonas), 60 µg/mL; in assay [1], 250 µg/mL.

For the molecule `CC1CN(c2c(F)cc3c(=O)c(C(=O)O)cn(C4CC4)c3c2F)CC(C)O1` (centres unmarked) [Example 10], the MIC was found to be 8000 µg/mL (≈ 21100 µM) in the assay on Proteus mir. 8223 (setting [2]), 4000 µg/mL (≈ 10600 µM) with Pseudomonas W. (setting [3]), 250 µg/mL (≈ 661 µM) in assay [1] (setting [4]) and 1000 µg/mL (≈ 2640 µM) against Proteus morg. 932.

Take `CCC1CN(c2c(F)cc3c(=O)c(C(=O)O)cn(C4CC4)c3c2F)CCN1` (centres unmarked) [Example 4]: the MIC in the assay with Proteus mir. 8223 (setting [2]) was determined as 8000 µg/mL (≈ 21200 µM); in the assay with Pseudomonas W. (setting [3]) it was 1000 µg/mL (≈ 2650 µM); in assay [1] (setting [4]), 500 µg/mL (≈ 1320 µM).

As for `CN1CCN(c2c(F)cc3c(=O)c(C(=O)O)cn(C4CC4)c3c2F)CC1.Cl` [Example 2, 1-cyclopropyl-6,8-difluoro-7-(4-methylpiperazin-1-yl)-1,4-dihydro-4-oxoquinoline-3-carboxylic acid hydrochloride], the MIC amounted to 2000 µg/mL with Proteus mir. 8223 (setting [2]) and 500 µg/mL in assay [1] (setting [4]).

As for `CCN1CCN(c2c(F)cc3c(=O)c(C(=O)O)cn(C4CC4)c3c2F)CC1` [Example 13], the MIC turned out to be 4000 µg/mL (≈ 10600 µM) in the assay on Proteus mir. 8223 (setting [2]), 500 µg/mL (≈ 1320 µM) in the assay with Pseudomonas W. (setting [3]) and 1000 µg/mL (≈ 2650 µM) in assay [1] (setting [4]).
